The record followed here is patent publication US5073566A, “Angiotensin II antagonist 1,3-imidazoles and use thereas” (Eli Lilly and Company, priority 1989, dated 1991).

One assay relates to angiotensin II receptor. The assay can be described thus: Adrenal Glomerulosa Test System: I125-angiotensin II binding to adrenal membranes. As to conditions: percent inhibition of I125 angiotensin binding at 10^-5 M of antagonist; rat adrenal membranes; 0.1 nM I125-angiotensin II.
Assay [1] addresses T1, angiotensin-induced vasoconstriction (rabbit aorta) (Oryctolagus cuniculus, UniProt P34976).
T1 construct: the thoracic aortas were removed and cleaned of excess fat and connective tissue; from tissue; host or cells: thoracic aorta rings of New Zealand white rabbits
T1 sequence (P34976 1-359): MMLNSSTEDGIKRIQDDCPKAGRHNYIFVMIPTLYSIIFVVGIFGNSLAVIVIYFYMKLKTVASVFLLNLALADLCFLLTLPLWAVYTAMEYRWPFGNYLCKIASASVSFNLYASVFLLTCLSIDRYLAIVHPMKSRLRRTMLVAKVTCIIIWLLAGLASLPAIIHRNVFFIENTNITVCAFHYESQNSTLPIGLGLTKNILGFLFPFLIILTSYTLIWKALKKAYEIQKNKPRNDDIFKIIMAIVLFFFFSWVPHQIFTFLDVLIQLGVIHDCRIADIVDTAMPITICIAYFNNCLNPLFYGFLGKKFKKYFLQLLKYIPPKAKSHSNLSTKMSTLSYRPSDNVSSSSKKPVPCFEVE
Nature of the assay: Rabbit Aorta Test System: antagonism of angiotensin II-induced contraction of aortic rings. The format is cell-based, New Zealand white rabbits.
Experimental: The ability to antagonize angiotensin-induced vasoconstriction was evaluated in the rabbit aorta test system.
New Zealand white rabbits (Hazelton, 2-3 kg) were sacrificed by cervical dislocation and the thoracic aortas were removed and cleaned of excess fat and connective tissue. Rings of tissue (3 mm wide) were mounted in 10 ml tissue baths between 2 L-shaped stainless steel hooks. The lower hook was attached to a stationary rod and the upper hook to a force displacement transducer (Grass model FT.03). The bath chambers were maintained at 37° C., aerated with 95% O2 /5% CO2, and contained physiological solution of the following composition (mM): NaCl, 117; glucose, 5.6; NaH2 PO4, 1.0; MgSO4, 0.7; KCl, 5.2; CaCl2, 1.8; NaHCO3, 26; and phentolamine HCl, 0.003.
Rings were equilibrated for 1 hour with 2 g of tension. During the equilibration period, the tissues were washed by overflow every 15 minutes. Rings were then exposed to 10^-8 M angiotensin II (AII) and were allowed to contract until a steady state was reached. Tissues were then washed every 15 minutes for 1 hour. This was repeated every hour until the AII response stabilized. A cumulative concentration-response curve to AII (10^-10 to 10^-7 M) was then obtained. At the conclusion of the concentration-response curve, tissues were washed every 2 minutes until baseline tension was reached, then every 15 minutes for 30 minutes. Compounds were added in a volume of 10 μl DMSO and allowed to incubate for 30 minutes before repeating the concentration-response curve to AII. Contractions to AII were expressed as a percent of the maximum contraction obtained in the control curve (the first AII concentration-response curve). EC50 's (concentration that contracted the tissues to 1/2 the control maximum) for each curve were calculated using a 4 parameter logistics model (NonLin, SAS institute).

Setting [2] is: pA2 = -log KB, KB = [molar concentration of antagonist]/[(EC50 AII with antagonist/EC50 AII without antagonist)-1], 30 min incubation, AII 10^-10 to 10^-7 M, read-out: Rabbit Aorta (pA2) (converted).

Where a name gives a salt, the structure may show the parent alone. Read-outs that look alike come from different tables or passages of the source.

Experimental for angiotensin II receptor: The ability for compounds of Formula I to block angiotensin II receptor binding was determined using the adrenal glomerulosa assay.
Binding of I^125 -angiotensin II to adrenal membranes was routinely carried out in 96-well filtration plates. Adrenal membranes were prepared from the capsular portion (glomerulosal layer attached) of rat adrenal glands by differential centrifugation. Briefly, capsules were homogenized in a solution containing sucrose, 250 mM; MgCl2, 1 mM; and tris, 5 mM at pH 7.5 and 4° C. using a polytron at setting 5 for 20 seconds. The homogenate was stirred, gently, for 15 minutes at 4° C. and then centrifuged 10 minutes, at 1000×g, 4° C. The supernatant was centrifuged 30 minutes, at 30,000 ×g, 4° C. and the resulting pellet resuspended in 50 mM tris. Membrane preparations were stored in aliquots at -70° C. until used. Binding of I^125 -angiotensin II to adrenal membranes was performed at room temperature for 90 minutes in 96-well plates containing a hydrophilic polyvinylidene fluoride membrane (0.45 μm, millipore-GV multiscreen). Each 250 μl incubate contained the following (final concentration): tris, 50 mM; NaCl, 120 mM; MgCl2, 5 mM; dithiothrietol 1 mM; bovine serum albumin, 0.05%; I^125 -angiotensin II, 0.1 nM; and adrenal membrane protein, 8-15 μg. Antagonists were added in concentrations from 10 nM to 100 μM. Non-specific binding was measured in the presence of 0.1 μM Sar1, Ile8 angiotensin II. Binding was terminated by vacuum filtration. Receptor-ligand complex trapped on filters was washed 3 times with 300 μl ice-cold wash solution (tris, 50 mM; NaCl, 120 mM; MgCl2, 5 mM; dithiothrietol, 1 mM). Filter discs were dried, punched out and counted in a gamma counter at 52% efficiency. Specific binding represented 96% of total binding (approximately 150 fmol angiotensin II/mg protein). Data are expressed as the percent inhibition of I^125 angiotensin binding at 10^-5 M of antagonist.

Turning to `CCCCCCC(C(=O)OCC)n1cnc(NC(=O)c2ccccc2C(=O)O)c1` (stereo not drawn) [Example 5, 4-[(2-Carboxybenzoyl)amino]-α-hexyl-1H-imidazole-1-acetic acid ethyl ester], the “Adrenal Glomerulosa (% Inhibition of Binding)” value in the assay with angiotensin II receptor is given as 39%. The Kb in assay [1] (setting [2]) is 3310 nM.
For the compound `CCCCCCC(C(=O)OCC)c1ccc(NC(=O)c2ccccc2C(=O)O)cc1` (stereo not drawn) [Example 9, 4-[(2-Carboxybenzoyl)amino]-α-hexylbenzene-acetic acid ethyl ester], the “Adrenal Glomerulosa (% Inhibition of Binding)” value with angiotensin II receptor is recorded as 25%. The Kb in assay [1] (setting [2]) is 18200 nM.
On the same counts, the results for `CCCCCCC(CC(=O)OC)n1cnc(NC(=O)c2ccccc2C(=O)O)c1` (stereo not drawn) [Example 10, 4-[(2-Carboxybenzoyl)amino]-β-hexyl-1H-imidazole-1-propanoic acid methyl ester] are 57% and 2340 nM.
On the same counts, the results for `CCCCCCC(C#N)n1cnc(NC(=O)c2ccccc2C(=O)O)c1` (stereo not drawn) [Example 12, 4-[(2-Carboxybenzoyl)amino]-α-hexyl-1H-imidazole-1-acetonitrile] are 44% and 2510 nM.
Take `CCCCCCC(C(=O)OCC)n1cnc(NC(=O)C(O)(c2ccccc2)c2ccccc2)c1` (stereo not drawn) [Example 14, α-Hexyl-4-[(diphenylhydroxyacetyl)amino]-1H-imidazole-1-acetic acid ethyl ester]: the “Adrenal Glomerulosa (% Inhibition of Binding)” value in the assay on angiotensin II receptor turned out to be 2%. The compound also had a Kb in assay [1] of 55000 nM.
For `CCCCCCC(C(=O)OCC)n1cnc(NC(=O)C2c3ccccc3-c3ccccc32)c1` (stereo not drawn) [Example 15, 4-[(9H-Fluoren-9-ylcarbonyl)amino]-αhexyl-1H-imidazole-1-acetic acid ethyl ester], the “Adrenal Glomerulosa (% Inhibition of Binding)” value in the assay on angiotensin II receptor is listed as 5%. Further, the Kb in assay [1] (setting [2]) is 75900 nM.
For the compound `CCCCCCC(C(=O)OCC)c1ccc(NC(=O)C2c3ccccc3-c3ccccc32)cc1` (stereo not drawn) [Example 18, 4-[(9H-Fluoren-9-ylcarbonyl)amino]-α-hexylbenzeneacetic acid ethyl ester], the “Adrenal Glomerulosa (% Inhibition of Binding)” value in the assay with angiotensin II receptor turned out to be 3%. Also, the Kb in assay [1] (setting [2]) was 794000 nM.
The like results for `CCCCCCC(C(=O)O)n1cnc(NC(=O)C(CC)(c2ccccc2)c2ccccc2)c1` (stereo not drawn) [Example 26, α-Hexyl-4-[(1-oxo-2,2-diphenylbutyl)amino]-1H-imidazole-1-acetic acid] were, in that order, 57% and 10200 nM.
On the same counts, the results for `CCCCCCC(CC(=O)O)n1cnc(NC(=O)c2cccc(O)c2C(=O)O)c1.O` (stereo not drawn) [Example 27, β-Hexyl-4-[(2-carboxy-3-hydroxybenzoyl)amino]-1H-imidazole-1-propanoic acid hydrate] are 64% and 141 nM.
Turning to `CCCCCCC(C(=O)O)n1cnc(NC(=O)c2ccc(C)cc2C(=O)O)c1` (stereo not drawn) [Example 28, α-Hexyl-4-[(2-carboxy-4-methylbenzoyl)amino]-1H-imidazole-1-acetic a cid], the “Adrenal Glomerulosa (% Inhibition of Binding)” value with angiotensin II receptor is on record as 10%. Further, the Kb in assay [1] (setting [2]) was 3470 nM.
With `CCCCCCC(C(=O)O)n1cnc(NC(=O)C(O)(c2ccccc2)c2ccccc2)c1` (stereo not drawn) [Example 29, α-Hexyl-[(hydroxydiphenylacetyl)amino]-1H-imidazole-1-acetic acid hydrochloride], the Kb in assay [1] is 25700 nM.
Regarding `CCCCCCC(C(=O)O)n1cnc(NC(=O)c2cccc(O)c2C(=O)O)c1` (stereo not drawn) [Example 30, α-Hexyl-4-[(2-carboxy-3-hydroxybenzoyl)amino]-1H-imidazole-1-acetic monohydrate], the “Adrenal Glomerulosa (% Inhibition of Binding)” value with angiotensin II receptor was 66%. Moreover, the Kb in assay [1] (setting [2]) was 110 nM.
The like results for `CCCCCCC(C(=O)O)n1cnc(NC(=O)C2c3ccccc3-c3ccccc32)c1` (stereo not drawn) [Example 31, α-Hexyl-9-[(9H-fluoren-9-ylcarbonyl)amino]-1H-imidazole-1-acetic acid hydrochloride] were, in that order, 70% and 3090 nM.
The like results for `CCCCCCC(C(=O)O)n1cnc(NC(=O)C2c3ccccc3Oc3ccccc32)c1.Cl.O` (stereo not drawn) [Example 32, α-Hexyl-4-[(9H-xanthen-9-ylcarbonyl)amino]-1H-imidazole-1-acetic acid hydrochloride monohydrate] were, in that order, 54% and 21400 nM.
For `CCCCCCC(C(=O)O)n1cnc(NC(=O)c2ccccc2C(=O)O)c1` (stereo not drawn) [Example 33, 4-[(2-Carboxybenzoyl)amino]-α-hexyl-1H-imidazole-1-acetic acid], the “Adrenal Glomerulosa (% Inhibition of Binding)” value in the assay with angiotensin II receptor came out at 42%. For the same compound, the Kb in assay [1] (setting [2]) was 631 nM.
On the same counts, the results for `CCCCCCC(C(=O)O)n1cnc(NC(=O)Cc2ccccc2C(=O)O)c1.O` (stereo not drawn) [Example 34, α-Hexyl-4-{[(2-carboxyphenyl)acetyl]-amino}-1H-imidazole-1-aceticacid hydrate] are 31% and 1910 nM.
Regarding `CCCCCCC(C(=O)O)n1cnc(NC(=O)c2c(C(=O)O)ccc3ccccc23)c1` (stereo not drawn) [Example 35, α-Hexyl-4-{[(2-carboxy-1-naphthalenyl)carbonyl]amino}-1H-imidazole-1-acetic acid], the “Adrenal Glomerulosa (% Inhibition of Binding)” value in the assay on angiotensin II receptor came out at 36%. Moreover, the Kb in assay [1] (setting [2]) is 2630 nM.
As for `CCCCCCC(C(=O)O)n1cnc(NC(=O)c2cc(C(=O)O)ccc2O)c1` (stereo not drawn) [Example 36, α-Hexyl-4-[(2-hydroxy-5-carboxybenzoyl)amino]-1H-imidazole-1-acetic acid], in the assay with angiotensin II receptor, the “Adrenal Glomerulosa (% Inhibition of Binding)” value stood at 5%. Besides, in assay [1] (setting [2]), the Kb is 11700 nM.
The like results for `CCCCCCC(C(=O)O)n1cnc(NC(=O)c2c(F)cccc2C(=O)O)c1` (stereo not drawn) [Example 37, 4-[(2-Carboxy-6-fluorobenzoyl)amino]-α-hexyl-1H-imidazole-1-acetic a cid hydrate (1:2.5)] were, in that order, 0% and 1580 nM.
Take `CCCCCCC(C(=O)O)c1ccc(NC(=O)c2ccccc2C(=O)O)cc1` (stereo not drawn) [Example 38, α-Hexyl-4-[(2-carboxybenzoyl)amino]benzeneacetic acid]: in the assay with angiotensin II receptor, the “Adrenal Glomerulosa (% Inhibition of Binding)” value was 30%. For the same compound, in assay [1] (setting [2]), the Kb is 1660 nM.
The like results for `CCCCCCC(CC(=O)O)n1cnc(NC(=O)c2ccccc2C(=O)O)c1.O` (stereo not drawn) [Example 39, 4-[(2-Carboxybenzoyl)amino]-β-hexyl-1H-imidazole-1-propanoic acid monohydrate] were, in that order, 44% and 661 nM.
On the same counts, the results for `CCCCCCC(C(=O)O)n1cnc(NC(=O)c2c(C(=O)O)cccc2[N+](=O)[O-])c1` (stereo not drawn) [Example 40, α-Hexyl-4-[(2-carboxy-6-nitrobenzoyl)-amino]-1H-imidazole-1-acetic a cid] are 9% and 1620 nM.
On the same counts, the results for `CCCCCCC(CCC(=O)O)n1cnc(NC(=O)c2ccccc2C(=O)O)c1` (stereo not drawn) [Example 41, 4-[(2-Carboxybenzoyl)amino]-γ-hexyl-1H-imidazole-1-butanoic acid hemihydrate] are 30% and 646 nM.
In the case of `CCCCCCC(C(=O)O)n1cnc(NC(=O)c2ccccc2-c2nnn[nH]2)c1.O` (stereo not drawn) [Example 42, α-Hexyl-4-{[2-(tetrazol-5-yl)benzoyl]-amino}-1H-imidazole-1-acetic a cid monohydrate], the “Adrenal Glomerulosa (% Inhibition of Binding)” value with angiotensin II receptor is 58%. Also, the Kb in assay [1] (setting [2]) was 331 nM.
The like results for `CCCCCCC(C(=O)O)n1cnc(NC(=O)c2ccccc2CC(=O)O)c1.O` (stereo not drawn) [Example 43, 4-{[2-(Carboxymethyl)benzoyl]amino}-α-hexyl-1H-imidazole-1-aceticacid monohydrate] were, in that order, 0% and 955 nM.
Take `CCCCCCC(C(=O)O)n1cnc(C(=O)NC2c3ccccc3-c3ccccc32)c1.Cl` (stereo not drawn) [Example 44, α-Hexyl-4-{[(9H-fluoren-9-yl)amino]-carbonyl}-1H-imidazole-1-acetic acid hydrochloride]: the “Adrenal Glomerulosa (% Inhibition of Binding)” value with angiotensin II receptor was 67%. The Kb in assay [1] (setting [2]) was 3980 nM.
The like results for `CCCCCCC(C(=O)O)n1cnc(NC(=O)c2cccc([N+](=O)[O-])c2C(=O)O)c1.O` (stereo not drawn) [Example 45, α-Hexyl-4-[(2-carboxy-3-nitrobenzoyl)-amino]-1H-imidazole-1-acetic a cid hydrate] were, in that order, 0% and 4170 nM.
`CCCCCCC(C(=O)O)n1cnc(C(=O)NCc2ccc(O)cc2)c1.Cl` (stereo not drawn) [Example 81, α-Hexyl-4-({[(4-hydroxyphenyl)methyl]-amino}carbonyl)-1H-imidazole-1-acetic acid hydrochloride]: the “Adrenal Glomerulosa (% Inhibition of Binding)” value in the assay with angiotensin II receptor stood at 41%.
Still for that read-out and setting: in the case of `CCCCCCC(C(=O)O)n1cnc(C(=O)Nc2ccccc2O)c1.Cl` (stereo not drawn) [Example 82, α-Hexyl-4-{[(2-hydroxyphenyl)amino]-carbonyl}-1H-imidazole-1-acetic acid hydrochloride] it was 62%; in that of `CCCCC(C(=O)O)n1cnc(C(=O)Nc2ccc(O)cc2)c1.Cl` (stereo not drawn) [Example 88, α-Butyl-4-{[(4-hydroxyphenyl)amino]-carbonyl}-1H-imidazole-1-acetic acid hydrochloride], 22%.
As for `CCCCCCC(C(=O)O)n1cnc(NC(=O)c2cccc(NC(C)=O)c2C(=O)O)c1` (stereo not drawn) [Example 97, α-Hexyl-4-{[3-(acetylamino)-2-carboxybenzoyl]amino}-1H-imidazole-1-acetic acid hemihydrate], in assay [1] (setting [2]), the Kb is 240 nM.
